The values below come from patent US20230226066A1, “COMPOUNDS FOR THE TREATMENT OF VIRAL INFECTIONS” (MERCK PATENT GMBH, priority 2020, published 2023).

What all share (format): cell-based
The subject of one series is SARS-CoV2/ZG/297-20. To be noted: MOI 0.05; 120 hours observation; Compound 1 at 1-81 μM, Compound 2 at 9-81 μM; compared to uninfected and infected control cells; FIGS. 1 and 2.
Series [1] is described as follows: Cytotoxic effect on Vero cells, assessed in parallel. To be noted: African green monkey, FIG. 5, read-out: half maximal cytotoxic concentration (CC50), viability of Vero cells. On the procedure:
(§1) The antiviral effect of Compounds is evaluated against Dengue virus serotype 2 (DENV-2) using cytopathic effect (CPE) inhibition assay. Cytotoxic effect was assessed in parallel.
(§2) Five-fold serial dilutions of Compound 2 were prepared at a starting concentration of 50 μM and added in triplicate to 1.00E+04 Vero cells seeded in conical 96-well plates one day prior and incubated at 37° C. and 5% CO2 for one-hour. During the incubation time, viruses were thawed and inoculum prepared in infection medium. Stock and inoculum were maintained in wet ice at all time. Virus was then added to the Compound 2 dilutions/cells (1:1) and plates were incubated at 37° C. and 5% CO2 for 3-5 days.

For series [2], the system named is Dengue virus serotype 2 (DENV-2). Briefly: Antiviral testing against Dengue virus serotype 2 in Vero cells (CPE inhibition assay, immunostaining). To be noted: DENV2, Vero, read-out: half maximal effective concentration (EC50), viral replication. On the procedure:
as §1, §2
Cells were immunostained. Then, medium was removed, cells were washed with PBS, fixed with cold 80%/20% (v/v) ethanol/methanol and incubated at −20° C. for 20 minutes. After removal of fixative the plates were air-dried, washed and stained with specific Ab #1, washed and stained with Ab #2-HRP conjugated. Then, cells were washed, 3,3′,5,5′-tetramethylbenzidine (TMB) substrate was added followed by addition of stop solution. The supernatant was transferred to a clean plate and signal read at 450 nm.

In the case of `Nc1nn2cc(F)cnc2c1C(=O)Nc1cncc(F)c1N1CCC(C(=O)N2CCN(C3COC3)CC2)CC1` [Compound 1, 2-Amino-6-fluoro-pyrazolo[1,5-a]pyrimidine-3-carboxylic acid [5′-fluoro-4-(4-oxetan-3-yl-piperazine-1-carbonyl)-3,4,5,6-tetrahydro-2H-[1,4′]bipyridinyl-3′-yl]-amide], the “confluence of Calu-3 cells infected with SARS-CoV-2” value in the series with SARS-CoV2/ZG/297-20 was “significant improvement of the confluence of the cells”.
Regarding `Cn1cncc1-c1c(F)cncc1NC(=O)c1c(N)nn2cc(F)cnc12` [Compound 2, 2-Amino-6-fluoro-N-[5-fluoro-4-(1-methyl-1H-imidazol-5-yl)pyridin-3-yl]pyrazolo [1,5-a]pyrimidine-3-carboxamide], the “confluence of Calu-3 cells infected with SARS-CoV-2” value with SARS-CoV2/ZG/297-20 was “significant improvement of the confluence of the cells”. Moreover, in series [1], the CC50 came out at 6.8 µM. Moreover, in series [2], the EC50 is 0.46 µM.
